Biological target: T1, human mPGES-1 (Homo sapiens, UniProt O14684)
T1 construct: made in house; host or cells: FreeStyle CHO-S cells (Chinese hamster ovary), transient transfection with pcDNA3.1(+)/human mPGES-1; microsome fraction used
T1 sequence (O14684 1-152): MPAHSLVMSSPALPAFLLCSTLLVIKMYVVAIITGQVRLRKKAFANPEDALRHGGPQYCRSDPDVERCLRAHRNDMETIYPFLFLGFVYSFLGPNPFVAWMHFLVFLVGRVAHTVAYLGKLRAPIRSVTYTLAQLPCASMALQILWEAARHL
Experiment: Evaluation of human mPGES-1 enzyme inhibitory activity (PGE2 measured by HTRF, microsome fraction of CHO-S cells expressing human mPGES-1)
Assay type: biochemical
Details: IC50 value; microsome fraction of CHO-S cells expressing human mPGES-1, PGE2 by HTRF
Procedure: That is, the amount of PGE2 produced by human mPGES-1 in the presence of a test article was measured by the HTRF (homogeneous time resolved fluorescence) method, based on which the human mPGES-1 enzyme inhibitory activity of the test article was determined.
1) Preparation of Human mPGES-1 Expressing Cell Microsome Fraction
A DNA fragment containing human mPGES-1, which is added with a BamHI recognition cleavage sequence immediately before the translation initiation codon and an EcoRI recognition cleavage sequence immediately after the translation termination codon was amplified by the PCR (Polymerase Chain Reaction) method using a human mPGES-1 expression plasmid DNA (pME-18S/iPGES-1) prepared in-house as a template. The purified DNA fragment was digested with BamHI and EcoRI, and ligated to pcDNA3.1(+) (Invitrogen, model number V790-20), similarly digested with BamHI and EcoRI, by using a DNA Ligation kit ver.2.1 (Takara Bio, model number 6022). The human mPGES-1 expression plasmid DNA was isolated from Escherichia coli DH5a (TOYOBO, model number DNA-903) transformed with the obtained ligation product. The base sequence of human mPGES-1 cloned to a vector was determined by the Dye Terminator method by using BigDye Terminator v3.1 Cycle Sequencing Kit (Applied Biosystems, #4337455).
Human mPGES-1 expression plasmid DNA was transfected into Chinese hamster ovary-derived cells (FreeStyle CHO-S Cell, Invitrogen, #R800-07) by using a transgene reagent (FreeStyle MAX Reagent (Invitrogen, #16447-100)), and cultured with shaking (8% CO2, 37° C.) in a medium containing 8 mmol/L L-glutamine (GIBCO FreeStyle CHO Expression Medium, Invitrogen, #12651-022) for 48 hr.
The CHO-S cells were suspended in Homogenate Buffer (100 mmol/L potassium phosphate (pH 7.4), 250 mmol/L Sucrose, 100 mmol/L EDTA, complete EDTA free (Roche, #1873580)). Using an ultrasonic disruptor UD-201 (Tomy Seiko), the suspended cells were disrupted at output:3, duty cycle:50 for 30 seconds. The precipitate was removed by centrifugation (1,000×g, 5 min, 4° C.), is and the supernatant was centrifuged (5,000×g, 10 min, 4° C.). The supernatant was further centrifuged (105,000×g, 60 min, 4° C.). The obtained precipitate was suspended in Resuspension Buffer (100 mmol/L potassium phosphate (pH 7.4), 250 mmol/L sucrose, 100 mmol/L EDTA, 10% glycerol) to give a microsome fraction.
The protein concentration of the microsome fraction was measured by the Bradford method (Protein Assay Kit, Bio-Rad). The microsome fraction was rapidly frozen in liquid nitrogen and preserved at −80° C. Human mPGES-1 in the microsome fraction was detected by Western Blot using rabbit anti-mPGES-1 polyclonal antibody (ThermoFisher Scientific, #PA1-10264).
2) Evaluation of Human mPGES-1 Enzyme Inhibitory Activity
A test article solution diluted with 0.1 mol/L potassium phosphate, pH 7.4 (hereinafter to be referred to as KPB) or DMSO (Nacalai Tesque, #13407-45) was added at 5 μL/well to 96 well V-bottom plate (Corning, #3363). The final DMSO concentration during the reaction was set to 2% (v/v). Furthermore, a microsome fraction of CHO-S cells expressing human mPGES-1, which was diluted with reduced GSH (12.5 mmol/L KPB solution, SIGMA, #G6529-25G) such that the protein concentration was 5 μg/mL, was added at 20 μL/well. The amount of the microsome fraction used is the amount of microsome fraction within a range where the amount of PGE2 produced under the reaction conditions shown below and the amount of microsome fraction used show linearity. To the blank was added reduced GSH (12.5 mmol/L KPB solution) at 20 μL/well.

Row | Compound | IC50
1 | CCCc1ccc(-c2nc(O)nc(-c3cc(CNC(=O)C(C)(C)C)ccc3Cl)n2)cc1 [Example 1-44] | 0.6 nM
2 | Cc1ccc(CO)cc1-c1nc(O)nc(-c2ccc(C(F)(F)F)cc2)n1 [Example 1-45] | 138 nM
3 | CC(C)c1ccc(-c2nc(O)nc(-c3cc(CNC(=O)C(C)(C)C)ccc3Cl)n2)cc1 [Example 1-46] | 0.7 nM
4 | CC(=O)NCc1ccc(C)c(-c2nc(O)nc(-c3ccc(C(F)(F)F)cc3)n2)c1 [Example 1-47] | 43 nM
5 | Cc1ccc(CNC(=O)C(C)(C)C)cc1-c1nc(O)nc(-c2ccc(C(F)(F)F)cc2)n1 [Example 1-48] | 0.9 nM
6 | CC(C)c1cccc(-c2nc(O)nc(-c3cc(CNC(=O)C(C)(C)C)ccc3Cl)n2)c1 [Example 1-49] | 0.9 nM
7 | CCCc1cccc(-c2nc(O)nc(-c3cc(CNC(=O)C(C)(C)C)ccc3Cl)n2)c1 [Example 1-50] | 0.9 nM
8 | CC1(C(=O)NCc2ccc(Cl)c(-c3nc(O)nc(-c4ccccc4)n3)c2)CCCCC1 [Example 1-52] | 0.6 nM
9 | COC(C)(C)C(=O)NCc1ccc(Cl)c(-c2nc(O)nc(-c3ccccc3)n2)c1 [Example 1-53] | 4.5 nM
10 | CC(C)(C)C(=O)NCc1ccc(Cl)c(-c2nc(O)nc(-c3cccc(C(F)(F)F)c3)n2)c1 [Example 1-54] | 0.9 nM
11 | CCc1cccc(-c2nc(O)nc(-c3cc(CNC(=O)C(C)(C)C)ccc3Cl)n2)c1 [Example 1-55] | 1.1 nM
12 | COC(C)(C)C(=O)NCc1ccc(Cl)c(-c2nc(O)nc(-c3ccc(C(F)(F)F)cc3)n2)c1 [Example 1-56] | 0.6 nM
13 | CC(C)(C)C(=O)NCc1ccc(Cl)c(-c2nc(O)nc(-c3cccc(C(C)(C)C)c3)n2)c1 [Example 1-57] | 0.5 nM
14 | CCC(C)(C)C(=O)NCc1ccc(Cl)c(-c2nc(O)nc(-c3cccc(C(F)(F)F)c3)n2)c1 [Example 1-58] | 0.5 nM
15 | CC(C)(C(=O)NCc1ccc(Cl)c(-c2nc(O)nc(-c3cccc(C(F)(F)F)c3)n2)c1)C(F)(F)F [Example 1-59] | 0.6 nM
16 | CC(C)(C)C(=O)NCc1ccc(Cl)c(-c2nc(O)nc(-c3ccc(OC(F)(F)F)cc3)n2)c1 [Example 1-60] | 0.4 nM
17 | CC(C)(C)C(=O)NCc1ccc(Cl)c(-c2nc(O)nc(-c3cccc(OC(F)(F)F)c3)n2)c1 [Example 1-61] | 0.7 nM
18 | CCOc1cccc(-c2nc(O)nc(-c3cc(CNC(=O)C(C)(C)C)ccc3Cl)n2)c1 [Example 1-62] | 1 nM
19 | Cc1ccc(-c2nc(O)nc(-c3cc(CNC(=O)C(C)(C)C)ccc3Cl)n2)cc1 [Example 1-63] | 0.5 nM
20 | Cc1cccc(-c2nc(O)nc(-c3cc(CNC(=O)C(C)(C)C)ccc3Cl)n2)c1 [Example 1-64] | 1.9 nM
21 | O=C(NCc1ccc(Cl)c(-c2nc(O)nc(-c3ccccc3)n2)c1)C12CC3CC(CC(C3)C1)C2 [Example 1-65] | 8.6 nM
22 | O=C(NCc1ccc(Cl)c(-c2nc(O)nc(-c3ccccc3)n2)c1)C1CCC1 [Example 1-66] | 4.1 nM
23 | O=C(NCc1ccc(Cl)c(-c2nc(O)nc(-c3ccccc3)n2)c1)C1CCCC1 [Example 1-67] | 1 nM
24 | O=C(NCc1ccc(Cl)c(-c2nc(O)nc(-c3ccccc3)n2)c1)C1(C(F)(F)F)CCCC1 [Example 1-68] | 0.3 nM
25 | CC(C)(C(=O)NCc1ccc(Cl)c(-c2nc(O)nc(-c3ccccc3)n2)c1)C(F)(F)F [Example 1-69] | 0.3 nM
26 | O=C(NCc1ccc(Cl)c(-c2nc(O)nc(-c3ccccc3)n2)c1)C1(C(F)(F)F)CCC1 [Example 1-70] | 0.7 nM

Row | Compound | IC50
27 | O=C(NCc1ccc(Cl)c(-c2nc(O)nc(-c3ccccc3)n2)c1)C1CCCCC1 [Example 1-71] | 2.5 nM
28 | CC1(C(=O)NCc2ccc(Cl)c(-c3nc(O)nc(-c4ccccc4)n3)c2)CCC1 [Example 1-72] | 1.3 nM
29 | CC1(C(=O)NCc2ccc(Cl)c(-c3nc(O)nc(-c4ccccc4)n3)c2)CCCC1 [Example 1-73] | 0.6 nM
30 | CC(C)(C)C(=O)NCc1ccc(Cl)c(-c2nc(O)nc(-c3ccc(F)cc3)n2)c1 [Example 1-74] | 0.6 nM
31 | COCc1cccc(-c2nc(O)nc(-c3cc(CNC(=O)C(C)(C)C)ccc3Cl)n2)c1 [Example 1-75] | 6.7 nM
32 | CC(C)(C)C(=O)NCc1ccc(Cl)c(-c2nc(O)nc(-c3cccc(F)c3)n2)c1 [Example 1-76] | 1.7 nM
33 | CC(C)(C(=O)NCc1ccc(Cl)c(-c2nc(O)nc(-c3cccc(OC(F)(F)F)c3)n2)c1)C(F)(F)F [Example 1-77] | 0.9 nM
34 | O=C(NCc1ccc(Cl)c(-c2nc(O)nc(-c3cccc(OC(F)(F)F)c3)n2)c1)C1(C(F)(F)F)CCCC1 [Example 1-78] | 2.2 nM
35 | O=C(NCc1ccc(Cl)c(-c2nc(O)nc(-c3cccc(C(F)(F)F)c3)n2)c1)C1(C(F)(F)F)CCCC1 [Example 1-79] | 1.2 nM
36 | CC(C)(C)c1cccc(-c2nc(O)nc(-c3cc(CNC(=O)C4(C(F)(F)F)CCCC4)ccc3Cl)n2)c1 [Example 1-80] | 3.1 nM
37 | CC(C)Oc1ccc(-c2nc(O)nc(-c3cc(CNC(=O)C(C)(C)C)ccc3Cl)n2)cc1 [Example 1-82] | 0.8 nM
38 | CC(C)OC(=O)NCc1ccc(Cl)c(-c2nc(O)nc(-c3cccc(C(C)(C)C)c3)n2)c1 [Example 1-83] | 11 nM
39 | COC(C)(C)C(=O)NCc1ccc(Cl)c(-c2nc(O)nc(-c3cccc(C(C)(C)C)c3)n2)c1 [Example 1-84] | 0.6 nM
40 | CCOc1cccc(-c2nc(O)nc(-c3cc(CNC(=O)C4(C(F)(F)F)CCCC4)ccc3Cl)n2)c1 [Example 1-85] | 0.5 nM
41 | CC(C)(C)COc1ccc(-c2nc(O)nc(-c3cc(CNC(=O)C(C)(C)C(F)(F)F)ccc3Cl)n2)cc1 [Example 1-86, N-(4-chloro-3-{4-[4-(2,2-dimethylpropoxy)phenyl]-6-hydroxy-1,3,5-triazin-2-yl}benzyl)-3,3,3-trifluoro-2,2-dimethylpropionamide] | 5.8 nM
42 | CO[C@](C)(C(=O)NCc1ccc(Cl)c(-c2nc(O)nc(-c3ccccc3)n2)c1)C(F)(F)F [Example 1-87] | 0.8 nM
43 | CC(C)COc1cccc(-c2nc(O)nc(-c3cc(CNC(=O)C(C)(C)C(F)(F)F)ccc3Cl)n2)c1 [Example 1-88] | 1.2 nM
44 | CO[C@@](C)(C(=O)NCc1ccc(Cl)c(-c2nc(O)nc(-c3ccccc3)n2)c1)C(F)(F)F [Example 1-89] | 0.9 nM
45 | Cc1cc(-c2nc(O)nc(-c3cc(CNC(=O)C(C)(C)C(F)(F)F)ccc3Cl)n2)ccc1F [Example 1-90] | 0.4 nM
46 | CC(C)Oc1cccc(-c2nc(O)nc(-c3cc(CNC(=O)C(C)(C)C(F)(F)F)ccc3Cl)n2)c1 [Example 1-91] | 0.4 nM
47 | CC(C)(C)c1cccc(-c2nc(O)nc(-c3cc(CNC(=O)C(C)(C)C(F)(F)F)ccc3Cl)n2)c1 [Example 1-92] | 0.5 nM
48 | Cc1cc(C)cc(-c2nc(O)nc(-c3cc(CNC(=O)C(C)(C)C(F)(F)F)ccc3Cl)n2)c1 [Example 1-93] | 0.7 nM
49 | CC(C)(C)c1cccc(-c2nc(O)nc(-c3cc(CNC(=O)c4ccccc4)ccc3Cl)n2)c1 [Example 1-94] | 4.6 nM
50 | CC(C)Cc1cccc(-c2nc(O)nc(-c3cc(CNC(=O)C(C)(C)C(F)(F)F)ccc3Cl)n2)c1 [Example 1-95] | 2.1 nM
51 | CCO[C@](C)(C(=O)NCc1ccc(Cl)c(-c2nc(O)nc(-c3ccccc3)n2)c1)C(F)(F)F [Example 1-96] | 81 nM
